Laboratory results as given in patent US20260275368A1, “COUMARIN SYNTHESIS AND USES THEREOF” (BASF SE, priority 2022, published 2026).

Columns and labels:
soybean plants = test: Rating for plant health of T1 soybean plants; format: in vivo
Description: 12 T1 soybean plants per event and respective controls are potted and grown for 3-4 weeks in the phytochamber (16 h day-und 8 h-night-Rhythm at a temperature of 16° and 22° C. und a humidity of 75%) till the first 2 trifoliate leaves were fully expanded. A general rating of plant health is performed before (and partially after) the infection experiment. Only those plants are selected for inoculation that show, in general, a healthy phenotype. Healthy phenotype means normal growth habit, green, fully expanded green leaves, having no or only minor lesions, no obvious yellowing, leaf drop or other stress-associated phenotypes.

Phakopsora pachyrhizi = test: Pathogen assay for soybean: susceptibility to soybean rust (diseased leaf area); format: in vivo, Phakopsora pachyrhizi on soybean
Description: 12 T1 soybean plants per event and respective controls are potted and grown for 3-4 weeks in the phytochamber (16 h day-und 8 h-night-Rhythm at a temperature of 16° and 22° C. und a humidity of 75%) till the first 2 trifoliate leaves were fully expanded.
The plants are inoculated with spores of P. pachyrhizi. In order to obtain appropriate spore material for the inoculation, soybean leaves, which are infected with rust 15-20 days ago, are taken 2-3 days before the inoculation and transferred to agar plates (1% agar in H2O). The leaves are placed with their upper side onto the agar, which allowed the fungus to grow through the tissue and to produce very young spores. For the inoculation solution, the spores are knocked off the leaves and are added to a Tween-H2O solution. The counting of spores is performed under a light microscope by means of a Thoma counting chamber. […]
The progression of the soybean rust disease is scored in percent by the estimation of the diseased area (area which was covered by sporulating uredinia) on the backside (abaxial side) of the leaf. […]
At all 11-12 T1 soybean plants per event and 5 independent events per construct were inoculated with spores of Phakopsora pachyrhizi. The macroscopic disease symptoms of soybean against P. pachyrhizi of the inoculated soybean plants were scored 14 days after inoculation. […]

[1] = transgenic soybean accumulating the coumarin, compared with WT

Germination rate (soybean plants; [1]) | first trifoliate leaf (soybean plants; [1]) | growth phenotype (soybean plants; [1]) | older leaves (soybean plants; [1]) | Germination rate (soybean plants; in vivo) | first trifoliate leaf (soybean plants; in vivo) | growth phenotype (soybean plants; in vivo) | older leaves (soybean plants; in vivo) | SMILES | reduction of the diseased leaf area in comparison to non-transgenic control plants (Phakopsora pachyrhizi; 59 T1 soybean plants (5 events) accumulating sideretin by expressing S8H+CYP82C4, inoculated with P. pachyrhizi spores, scored 14 days after inoculation, p<0.01) [%] | increase of soybean rust resistance (Phakopsora pachyrhizi; accumulation of sideretin by expression of S8H and CYP82C4 (and F6H1 and CoSy) in T1 soybean, vs 18 wild type controls, 14 days after inoculation, p=0,009) [%]
Slightly | some | Smaller | Yellowing of | – | – | – | – | COc1cc2ccc(=O)oc2cc1O [Scopoletin, scopoletin, reference compound] | – | –
– | – | – | – | like WT | like WT | like WT | Unclear | COc1c(O)c(O)c2oc(=O)ccc2c1O [Sideretin, sideretin] | 41 | 41
